Tests used:
Assay type in all cases: biochemical
TEM-1 β-lactamase WT [1] = target: T1, TEM-1 β-lactamase WT (Escherichia coli, UniProt P62593); assay: AVB covalent inhibition kinetics
TEM-1 β-lactamase A237Y [2] = target: T2, TEM-1 β-lactamase A237Y (Escherichia coli, UniProt P62593, A235Y); assay: AVB covalent inhibition kinetics; conditions: A237Y TEM-1
[3] = target: T3, TEM-1 β-lactamase A237Y^e (ester) (Escherichia coli, UniProt P62593, A235Y); assay: AVB covalent inhibition kinetics; conditions: A237Y^e (ester) TEM-1
[4] = test system: TEM-1 β-lactamase A237Y^e (ester); assay: AVB covalent inhibition kinetics; conditions: A237Y^e compared with A237Y
TEM-1 β-lactamase A237E [5] = target: T4, TEM-1 β-lactamase A237E (Escherichia coli, UniProt P62593, A235E); assay: AVB covalent inhibition kinetics; conditions: A237E TEM-1
TEM-1 β-lactamase A237R [6] = target: T5, TEM-1 β-lactamase A237R (Escherichia coli, UniProt P62593, A235R); assay: AVB covalent inhibition kinetics; conditions: A237R TEM-1
TEM-1 β-lactamase A237W [7] = target: T6, TEM-1 β-lactamase A237W (Escherichia coli, UniProt P62593, A235W); assay: AVB covalent inhibition kinetics; conditions: A237W TEM-1
TEM-1 β-lactamase WT [8] = target: T1, TEM-1 β-lactamase WT; assay: PenG acylation kinetics
TEM-1 β-lactamase A237Y [9] = target: T2, TEM-1 β-lactamase A237Y; assay: PenG acylation kinetics; conditions: A237Y TEM-1; median [68.25% confidence interval]
[10] = target: T3, TEM-1 β-lactamase A237Y^e (ester); assay: PenG acylation kinetics; conditions: A237Y^e (ester) TEM-1; median [68.25% confidence interval]
TEM-1 β-lactamase A237E [11] = target: T4, TEM-1 β-lactamase A237E; assay: PenG acylation kinetics; conditions: A237E TEM-1; median [68.25% confidence interval]
TEM-1 β-lactamase A237R [12] = target: T5, TEM-1 β-lactamase A237R; assay: PenG acylation kinetics; conditions: A237R TEM-1; median [68.25% confidence interval]
TEM-1 β-lactamase A237W [13] = target: T6, TEM-1 β-lactamase A237W; assay: PenG acylation kinetics; conditions: A237W TEM-1; median [68.25% confidence interval]

Structure (SMILES): NC(=O)[C@@H]1CC[C@@H]2CN1C(=O)N2OS(=O)(=O)O [AVB, avibactam]
- AVB carbamylation rate, kcbm (TEM-1 β-lactamase WT [1]; WT TEM-1): 23.1 ± 0.2 s⁻¹
- AVB recyclization rate, krec (TEM-1 β-lactamase WT [1]; WT TEM-1): (2.3 ± 0.3) × 10^−4 s^−1
- enhancement of kcbm by the active site electric field (TEM-1 β-lactamase WT [1]; WT TEM·AVB, field −150 MV/cm): 7.5 orders of magnitude
- acceleration of recyclization by the active site electric field (TEM-1 β-lactamase WT [1]; WT TEM−AVB, field −97 MV/cm): 4.9 orders of magnitude
- AVB carbamylation rate, kcbm (TEM-1 β-lactamase A237Y [2]): 6.19 ± 0.08 s⁻¹
- AVB recyclization rate, krec (TEM-1 β-lactamase A237Y [2]): (1.7 ± 0.3) × 10^−3 s^−1
- AVB carbamylation rate, kcbm [3]: (1.8 ± 0.1) × 10^−3 s^−1
- AVB recyclization rate, krec [3]: (3.4 ± 0.1) × 10^−7 s^−1
- decrease in kcbm, factor [4]: 3.5 × 10^3
- decrease in krec, factor [4]: 5.0 × 10^3
- AVB carbamylation rate, kcbm (TEM-1 β-lactamase A237E [5]): 4.63 ± 0.23 s⁻¹
- AVB recyclization rate, krec (TEM-1 β-lactamase A237E [5]): (8.7 ± 1.5) × 10^−5 s^−1
- AVB carbamylation rate, kcbm (TEM-1 β-lactamase A237R [6]): 3.63 ± 0.03 s⁻¹
- AVB recyclization rate, krec (TEM-1 β-lactamase A237R [6]): (6.2 ± 0.9) × 10^−4 s^−1
- AVB carbamylation rate, kcbm (TEM-1 β-lactamase A237W [7]): 3.31 ± 0.05 s⁻¹
- AVB recyclization rate, krec (TEM-1 β-lactamase A237W [7]): (6.7 ± 1.3) × 10^−4 s^−1

Structure (SMILES): CC1(C)S[C@@H]2[C@H](NC(=O)Cc3ccccc3)C(=O)N2[C@H]1C(=O)O [PenG, penicillin G]
- PenG acylation rate, kac (TEM-1 β-lactamase WT [8]; WT TEM-1, median [68.25% confidence interval]): 4941 [4784, 5086] s^−1
- enhancement of kac by the active site electric field (TEM-1 β-lactamase WT [8]; WT TEM·PenG, field −171 MV/cm): 8.6 orders of magnitude
- PenG acylation rate, kac (TEM-1 β-lactamase A237Y [9]): 2838 [2740, 2940] s^−1
- PenG acylation rate, kac [10]: 86.1 [69.2, 97.0] s^−1
- PenG acylation rate, kac (TEM-1 β-lactamase A237E [11]): 5857 [5288, 6012] s^−1
- PenG acylation rate, kac (TEM-1 β-lactamase A237R [12]): 3265 [3137, 3396] s^−1
- PenG acylation rate, kac (TEM-1 β-lactamase A237W [13]): 1390 [1366, 1415] s^−1

Source: article PMC10066720 (Journal of the American Chemical Society, 2022)
